Patent publication US20080039461A1, “Treatment of pain by inhibition of p38 map kinase” (priority 2002, published 2008)

Tests used:
Type in all cases: in vivo, rat
[1] = test system: NMDA-induced hyperalgesia; test: hyperalgesia induced by intrathecal NMDA; details: IT NMDA 0.3 μg; MK801 10 μg, IT SD 3-60 μg, IT SB 1-30 μg, SA 10 μg
Text: (§1) Male Sprague-Dawley rats (300-350 g) were implanted under isoflurane anesthesia with lumbar polyethylene (PE-10) catheters according to a modified method originally described in Physiol. Behav. 17, 1031 (1976). […] IT saline and 5% DMSO alone had no effect on behavior or protein expression/phosphorylation.

[2] = test system: carrageenan-induced thermal hyperalgesia; test: carrageenan-induced thermal hyperalgesia (Hargreaves-type device)
Experimental: Hyperalgesia was induced in the rat's right hindpaw by intraplantar injection of carrageenan (2 mg in 0.1 ml of a […] solution (weight/volume) in physiological saline). To assess the thermally evoked paw withdrawal time, a device modeled after that described by Hargreaves (1988) was used. See Hargreaves K, Dubner R, Brown F, Flores C, Joris J. A new and sensitive method for measuring thermal nociception in cutaneous hyperalgesia, Pain, 32, 77-88 (1988). The device consisted of a glass surface on top of which the rats were placed. The glass surface was heated by a focused projection bulb below the glass surface. The first sign of discomfort is usually expressed as an attempt to sit up and lick the forepaws by the experimental animal. This response indicates a threshold of pain under the predetermined conditions. Dancing and jumping about by an undrugged animal is an indicator of unbearable pain; whereas drugged animals more commonly withdraw the hind paws and keep them close to their abdomen. A timer was actuated with the light source and latency defined as the time required for the paw to be withdrawn from the glass surface. See Dirig D M, Isakson P C, and Yaksh T L. J Pharmacol Exp Ther., 285, 1031-8 (1998).

[3] = test system: thermal hyperalgesia induced by IT sP; test: thermal hyperalgesia evoked by intrathecal substance P; details: intrathecal pretreatment (-10 min); sP 30 nmol/10 μL
Experimental: (The inhibitory activity of SD for p38 alpha and p38 beta was evaluated with an assay using recombinant (E. coli) human enzymes and myelin basic protein as a substrate by the methods of Clerk and Kumar respectively. See A. Clerk, P. […]. Sugden, FEBS Lett 426, 93-6. (1998) and S. Kumar, et al., Biochem Biophys Res Commun 235, 533-8. (1997).
as §1

[4] = test system: formalin-induced flinching behavior; test: formalin-induced flinching (paw formalin model); details: intrathecal pre-treatment (-10 min)
Experimental: An evaluation was conducted to determine presence or lack thereof for an afferent-mediated induction of phosphorylated (activated) spinal p38 MAPK. A formalin mediated hyperalgesia model was utilized to conduct the evaluation. (In the formalin model, a standard dose of formalin is injected into the rat paw, and flexions of the paw are quantitated over the following 90 minute period. A biphasic response pattern is typically observed, with numerous responses observed during the period five minutes after injection (Phase 1) and a second phase (Phase 2), which occurs during the period about 10-60 minutes following injection. The mean number of flinches per minute is recorded as a function of time. Quantitation of responses during each phase can be accomplished by calculation of area under the curve of flinches/minute.) The formalin induction model reflects several levels of processing of nociceptive information in the spinal cord. See, e.g., U.S. Pat. No. 6,166,085. […] This second phase is thought to represent a state of facilitated processing evoked by the afferent input present during phase I and to involve release of at least two substances, glutamate and a tachykinin, based on pharmacological evidence. Injection of formalin into the paw evokes an initial burst of afferent input followed by a persistent low level discharge. […]

`C[S+]([O-])c1ccc(-c2nc(-c3ccncc3)c(-c3ccc(F)cc3)[nH]2)cc1` (centres unmarked) [SB, SB203580] was tested, and the “hyperalgesia induced by IT NMDA” value [1] was “reversed in a dose dependent fashion”, the carrageenan-induced thermal hyperalgesia ([2]; intrathecal pre-treatment (-10 min)) was “potent dose-dependent suppression” and the “response latency of the uninduced paw” value ([2]; intrathecal, even after the highest doses) was “no changes”. For the same molecule, the “thermal hyperalgesia induced by IT sP” value [3] was “blocked the thermal hyperalgesia induced by IT sP in a dose dependent fashion” and the “second phase of flinching behavior induced by formalin” value [4] was “potent dose-dependent attenuation”.
